Legend:
[1] = tested on: Canis familiaris; assay: Inotropic activity of compound was evaluated as % change in mean arterial blood pressure at a dose of 8.75 (mg/Kg) in anesthetized dog; type: functional, Canis lupus familiaris
[2] = tested on: Canis familiaris; assay: Inotropic activity of compound was evaluated as % change in heart rate at a dose of 8.75 (mg/Kg) in anesthetized dog; type: functional, Canis lupus familiaris
[3] = tested on: Canis familiaris; assay: Inotropic activity of compound was evaluated as % increase in cardiac force at a dose of 8.75 (mg/Kg) in anesthetized dog; type: functional, Canis lupus familiaris, Heart
[4] = tested on: Canis familiaris; assay: Inotropic activity of compound was evaluated as % change in heart rate at a dose of 8.28 (mg/Kg) in anesthetized dog; type: functional, Canis lupus familiaris
[5] = tested on: Canis familiaris; assay: Inotropic activity of compound was evaluated as % increase in cardiac force at a dose of 8.28 (mg/Kg) in anesthetized dog; type: functional, Canis lupus familiaris, Heart
[6] = tested on: Canis familiaris; assay: Inotropic activity of compound was evaluated as % change in mean arterial blood pressure at a dose of 8.28 (mg/Kg) in anesthetized dog; type: functional, Canis lupus familiaris
[7] = tested on: Canis familiaris; assay: Inotropic activity of compound was evaluated as % change in mean arterial blood pressure at a dose of 1.87 (mg/Kg) in anesthetized dog; type: functional, Canis lupus familiaris
[8] = tested on: Canis familiaris; assay: Inotropic activity of compound was evaluated as % increase in cardiac force at a dose of 1.87 (mg/Kg) in anesthetized dog; type: functional, Canis lupus familiaris, Heart
[9] = tested on: Canis familiaris; assay: Inotropic activity of compound was evaluated as % change in heart rate at a dose of 1.87 (mg/Kg) in anesthetized dog; type: functional, Canis lupus familiaris
[10] = tested on: Canis familiaris; assay: Inotropic activity of compound was evaluated as % change in mean arterial blood pressure at a dose of 10 (mg/Kg, intraduodenally) in anesthetized dog; type: functional, Canis lupus familiaris
[11] = tested on: Canis familiaris; assay: Inotropic activity of compound was evaluated as % change in heart rate at a dose of 10 (mg/Kg, intraduodenally) in anesthetized dog; type: functional, Canis lupus familiaris
[12] = tested on: Canis familiaris; assay: Inotropic activity of compound was evaluated as % increase in cardiac force at a dose of 10 (mg/Kg, intraduodenally) in anesthetized dog; type: functional, Canis lupus familiaris, Heart

Row | SMILES | MABP [1] | HR [2] | CF [3] | MABP [7] | CF [8] | HR [9] | also measured
1 | COc1cc2c(cc1OC)C(C)=[N+]([O-])C(c1cc3c(cc1[N+](=O)[O-])OCO3)N2 (stereo not given) | 0% | 4% | 17% | – | – | – | –
2 | COc1cc2c(cc1OC)C(C)=[N+]([O-])C(c1ccccn1)N2 (stereo not given) | 0% | 16% | 45% | – | – | – | –
3 | COc1cc2c(cc1OC)C(C)=[N+]([O-])C(c1cccc3c1OCO3)N2 (stereo not given) | – | – | – | – | – | – | HR [4]: 13%; CF [5]: 45%; MABP [6]: 10%
4 | COc1ccc(C2Nc3cc(OC)c(OC)cc3C(C)=[N+]2[O-])cc1 (stereo not given) | – | – | – | -6% | 29% | 8% | –
5 | COc1cc2c(cc1OC)C(C)=[N+]([O-])C(c1c(F)c(F)c(F)c(F)c1F)N2 (stereo not given) | – | – | – | 2% | 33% | 8% | –
6 | COc1cc2c(cc1OC)C(C)=[N+]([O-])C(c1ccncc1)N2 (stereo not given) | 0% | 8% | 29% | – | – | – | –
7 | COc1cc2nc(-c3ccccc3)[n+]([O-])c(C)c2cc1OC | 0% | 5% | 29% | – | – | – | –
8 | COc1cc2c(cc1OC)C(C)=[N+]([O-])C(c1ccc(C)cc1)N2 (stereo not given) | – | – | – | -6% | 45% | 10% | –
9 | COc1cc2c(cc1OC)C(C)=[N+]([O-])C(c1ccco1)N2 (stereo not given) | -14% | 20% | 123% | – | – | – | –
10 | COc1cc2c(cc1OC)C(C)=[N+]([O-])C(c1ccc3c(c1)OCO3)N2 (stereo not given) | -38% | 39% | 124% | – | – | – | –
11 | COc1cc2nc(-c3ccccc3)nc(C)c2cc1OC | – | – | – | -20% | -14% | -4% | –
12 | COc1cc2c(cc1OC)C(C)=[N+]([O-])C(c1ccccc1)N2 (stereo not given) | -28% | 47% | 137% | -3% | 42% | 12% | MABP [10]: -15%; HR [11]: 37%; CF [12]: 157%
13 | COc1cc2c(cc1OC)C(C)=[N+]([O-])C(c1cccs1)N2 (stereo not given) | -31% | 21% | 75% | – | – | – | –
